Results published in US10555919B2, “Melatonin in autoimmune disease” (The Brigham and Women's Hopsital, Inc., priority 2014, dated 2020).

Legend:
Tr1 cells = experiment: In vitro mouse Tr1 cell differentiation; assay type: cell-based; conditions: agomelatine 20 ng/ml, CGP 52608 20 ng/ml
Description: (§1) Naive CD4+ T cells (CD4+CD44loCD62LhiCD25−) were from the spleen and lymph node of C57BL/6 wild-type, MTNR1A−, NFIL3−, REV-ERBα, C/EBPα-deficient or RORα-deficient mice using magnetic beads (CD4+ T cell isolation kit, Miltenyi Biotec). All experiments were started between 7 and 9 am. Cells were activated with plate-bound anti-CD3 (2 μg/ml; 14-0031-86; eBioscience) and anti-CD28 (2 μg/ml; 16-0281-86; eBioscience). Mouse IL-27 (30 ng/ml; 34-8271; Biolegend) was added for the generation of Tr1 cells. IL-6 (30 ng/ml; 406-ML-025; R&D Systems), TGF-β1 (15 ng/ml; 130-095-067; Miltenyi Biotec), anti-IL-4 (2.5 μg/ml; C17.8; Biolegend) and anti-IFN-γ (5 μg/ml; XMG1.2; Biolegend) were added for the generation of Th17 cells. Recombinant mouse IL-23 (30 ng/ml; 1887-ML-010; R&D Systems) was added at day 2. For some experiments IL-6 and […] (10 ng/ml; 401-ML-025; R&D Systems) or TGF-β1 and IL-21 (100 ng/ml; 594-ML-010; R&D Systems) were used in instead for Th17 cell differentiation. IL-12 (30 ng/ml; 419-ML-010; R&D Systems) and anti-IL-4 (2.5 μg/ml; C17.8; Biolegend) were used for the generation of Th1 cells. IL-4 (30 ng/ml; 404-ML-010; R&D Systems) and anti-IFN-γ (5 μg/ml; XMG1.2; Biolegend) was added for the generation of Th2 cells. TGF-β1 (15 ng/ml; 130-095-067; Miltenyi Biotec) was used for the generation of Foxp3+ Tregs. Melatonin (Gador, Argentina), Agomelatin, and CGP-52608 (Sigma-Aldrich) were added at the start of the cultures and at day 2, at a final concentration of 2-20 ng/ml.

[1] = tested on: murine Th17 cell differentiation; experiment: In vitro mouse Th17 cell differentiation; assay type: cell-based; conditions: for differentiation of Th17 cells (rorc, IL-17, IL-23 receptor): wild type, melatonin 2 ng/ml, agomelatine 20 ng/ml, ramelteon 10 ng/ml, CGP 52608 20 ng/ml
Description: For intracellular cytokine staining, cells were stimulated for 4 h at 37° C. with phorbol 12-myristate 13-acetate (50 ng/ml; Sigma), ionomycin (1 μg/ml; Sigma) and monensin (GolgiStop; 1 μg/ml; BD Biosciences). After being stained for surface markers, cells were fixed and made permeable according to the manufacturer's instructions (BD Biosciences). All antibodies against cytokines were from Biolegend. All experiments were started at the same time (8-9 am). Data were collected with a LSR II or FACSAria (BD Biosciences), then were analyzed with FlowJo software (Treestar).
as §1
(§2) Secreted cytokines were measured in tissue culture supernatants after 72-96 hs by enzyme-linked immunosorbent assay as previously described (Farez et al., 2009).

MT2 melatonin receptor = biological target: T1, MT2 melatonin receptor (Homo sapiens, UniProt P49286); conditions: nonselective ligand; cited from earlier work
T1 sequence (P49286 1-362): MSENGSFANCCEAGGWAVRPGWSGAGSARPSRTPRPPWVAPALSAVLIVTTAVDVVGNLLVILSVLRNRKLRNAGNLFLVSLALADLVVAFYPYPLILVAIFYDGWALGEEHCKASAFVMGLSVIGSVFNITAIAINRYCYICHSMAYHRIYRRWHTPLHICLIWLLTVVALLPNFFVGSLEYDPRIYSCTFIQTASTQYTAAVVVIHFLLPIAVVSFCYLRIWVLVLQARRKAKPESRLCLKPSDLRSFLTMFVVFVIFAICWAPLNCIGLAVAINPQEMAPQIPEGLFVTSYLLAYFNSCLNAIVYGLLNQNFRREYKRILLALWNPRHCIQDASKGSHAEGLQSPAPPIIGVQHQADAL

[2] = tested on: human CD4+ T cells activated under Th17 polarizing conditions; experiment: In vitro human Th17 differentiation; assay type: cell-based; conditions: 500 ng/ml
Description: (§3) In vitro human T cell differentiation. For Th17 differentiation, naive CD45RA+ CD4+ T cells were isolated from PBMCs with magnetic beads (Naive Human CD4+ T Cell Isolation Kit II, Miltenyi Biotec) and seeded at a density of 5×10^5 cells/ml in 24-well plates coated with anti-CD3 and (2 μg/ml) and soluble anti-CD28 and cultured in the presence of the following cytokines IL-1β (25 ng/ml), IL-6 (50 ng/ml), and TGF-β1 (2 ng/ml) and neutralizing antibodies to IFN-g ([…]) and IL-4 (10 microgram/ml). Alternatively, Th17 cells were differentiated by using IL-1β (25 ng/ml), IL-6 (50 ng/ml), and IL-23 (50 ng/ml) and neutralizing antibodies to IFN-g ([…]) and IL-4 (10 microgram/ml). For Th1 differentiation naïve CD4+T cells are cultured in the presence of IL-12 (20 ng/ml) and anti-IL-4 (10 μg/ml).
as §2

human Th1 cells = experiment: In vitro human Th1 differentiation; assay type: cell-based; conditions: 500 ng/ml; IL-12
Description: as §3

[3] = tested on: human CD4+ T cells activated under Tr1 polarizing conditions; experiment: In vitro human Tr1 differentiation; assay type: cell-based; conditions: 500 ng/ml
From the text: We then studied the effects of melatonin on human CD4^+ T cells. In addition, we also analyzed the effects of agomelatine, which activates melatonin-dependent signaling (Hickie and Rogers, 2011). Based on the effects of melatonin administration on T cells during EAE, we focused our studies on human Th17 and Tr1 cells. Melatonin and agomelatine reduced the production of IL-17, RORC and IL17A expression by human CD4^+ T cells activated under Th17 polarizing conditions (FIGS. 3a-c and FIG. 8), no effect was detected on the differentiation of human Th1 cells (FIGS. 3d-f). Concomitantly, melatonin and agomelatine increased IL10 expression.

[4] = tested on: nr1d1 reporter-transfected HEK293 cells; experiment: nr1d1 promoter luciferase reporter assay; assay type: cell-based; conditions: nr1d1 promoter controls luciferase expression
From the text: The IL-10 promoter reporter and C-Maf and AhR vectors were previously described (Apetoh et al., 2010), vector expressing ROR-α were purchased from PlasmID at Harvard Medical School. Vectors coding for C/EBPα (44627) and Bmal reporter (46824) were purchased from Addgene. The retrovirus used for nfil3 overexpression in T cells was graciously provided by Laura Hooper (UT Southwestern, TX, USA). The retrovirus used for nr1d1 overexpression in T cells was graciously provided by Bart Staels (Institut Pasteur, Lille, France, […]). The nr1d1 promoter reporter was graciously provide by Vincent Laudent (Ecole Normale Supérieure, Lyon, France).
HEK293 cells were grown in DMEM supplemented with 10% FBS and were transfected with FuGENE HD transfection reagent and 2 μg of each plasmids according the manufacturer's instructions (Roche). Firefly and renilla luciferase activity was analyzed 48 h after transfection and 24 h after treatment with a Dual Luciferase Assay kit (Promega).

C=CCN1C(=O)CS/C1=N/NC(=S)NC [CGP 52608]
Tr1 cell differentiation (Tr1 cells): boosted
differentiation of Th17 cells (rorc, IL-17, IL-23 receptor) [1]: boosted

CC(=O)NCCc1c(Cc2ccccc2)[nH]c2ccccc12 [Luzindole, N-[2-(2-benzyl-1H-indol-3-yl)ethyl]acetamide]
higher affinity for the MT2 melatonin receptor (MT2 melatonin receptor): 15- to 25 fold

CCOC(=O)N1CCC(CN(Cc2ccc(Cl)cc2)Cc2ccc([N+](=O)[O-])s2)C1 (stereo not drawn) [SR9009]
differentiation into Th17 cells (RT-PCR) ([1]; SR9009 5 micromolar, 72 hr): suppresses

COc1ccc2cccc(CCNC(C)=O)c2c1 [agomelatine, N-[2-(7-methoxynaphthalen-1-yl)ethyl]acetamide]
production of IL-17, RORC and IL17A expression [2]: reduced
IL10 expression ([2]; Th17 polarizing conditions): increased
differentiation of human Th1 cells (human Th1 cells): no effect
IL-10 production [3]: increased
Tr1 cell differentiation (Tr1 cells): boosted
luciferase activity [4]: decreased
differentiation of Th17 cells (rorc, IL-17, IL-23 receptor) [1]: suppressed

CCC(=O)NCC[C@@H]1CCc2ccc3c(c21)CCO3 [ramelteon, (S)—N-[2-(1,6,7,8-tetrahydro-2H-indeno[5,4-b]furan-8-yl)ethyl]propionamide]
differentiation of Th17 cells (rorc, IL-17, IL-23 receptor) [1]: suppressed
